For six compounds, Ki results are on record in patent US6441000B1, “Compounds useful in therapy” (Pfizer Inc, priority 1999, dated 2002).

As a reminder, the Ki is a measure of affinity in units of concentration, obtained from inhibition or displacement.

The target in the assay is T1, mu opioid receptor (Canis lupus familiaris, UniProt A0A0F6TMT6).
T1 construct: from tissue; host or cells: beagle brain without cerebellum, membrane homogenate
In words: mu opioid receptor binding assay (displacement of 3H-DAMGO) in dog brain membranes. The conditions noted are these: 3H ligand DAMGO, room temperature 90 minutes, read-out: Ki values for the μ receptor. Here is the method:
The assays were conducted by the following procedure.
Laboratory bred beagles were used as a source of dog brain tissue. Animals were euthanised, their brains removed and the cerebellum discarded. The remaining brain tissue was sectioned into small pieces approximately 3 g in weight and homogenised in 50 mM Tris pH 7.4 buffer at 4° C. using a Kinematica Polytron™ tissue homogeniser. The resulting homogenate was centrifuged at 48,400×g for 10 minutes and the supernatant discarded. The pellet was resuspended in Tris buffer and incubated at 37° C. for 10 minutes. Centrifugation, resuspension and incubation steps were repeated twice more, and the final pellet was resuspended in Tris buffer and stored at −80° C. Membrane material prepared in this manner could be stored for up to four weeks prior to use.
For mu assays, increasing concentrations of experimental compound, (5×10^−12 to 10^−5 M), Tris buffer and ^3H ligand, ([D-Ala^2,N-Me-Phe^4,Gly-ol^5]-Enkephalin, DAMGO), were combined in polystyrene tubes. The reaction was initiated by the addition of tissue, and the mixture was incubated at room temperature for 90 minutes. The reaction was terminated by rapid filtration using a Brandel Cell Harvester™ through Betaplate™ GF/A glass fibre filters pre-soaked in 50 mM Tris pH 7.4, 0.1% polyethylenimine buffer. The filters were then washed three times with 0.5 mL ice-cold Tris pH 7.4 buffer. Washed filters were placed in bags and Starscint™ scintillant added. Bags containing the filters and scintillant were heat sealed and counted by a Betaplate™ 1204 beta counter.
Duplicate samples were run for each experimental compound and the data generated was analysed using IC50 analysis software in Graphpad Prism.
Ki values were calculated using Graphpad Prism according to the following formula:
Ki=IC50/1+[^3H ligand]/KD
where IC50 is the concentration at which 50% of the ^3H ligand is displaced by the test compound and KD is the dissociation constant for the ^3H ligand at the receptor site.
A general note: In a radioligand displacement assay an active substance lowers the binding of a labelled ligand.

T1 sequence (A0A0F6TMT6 1-401): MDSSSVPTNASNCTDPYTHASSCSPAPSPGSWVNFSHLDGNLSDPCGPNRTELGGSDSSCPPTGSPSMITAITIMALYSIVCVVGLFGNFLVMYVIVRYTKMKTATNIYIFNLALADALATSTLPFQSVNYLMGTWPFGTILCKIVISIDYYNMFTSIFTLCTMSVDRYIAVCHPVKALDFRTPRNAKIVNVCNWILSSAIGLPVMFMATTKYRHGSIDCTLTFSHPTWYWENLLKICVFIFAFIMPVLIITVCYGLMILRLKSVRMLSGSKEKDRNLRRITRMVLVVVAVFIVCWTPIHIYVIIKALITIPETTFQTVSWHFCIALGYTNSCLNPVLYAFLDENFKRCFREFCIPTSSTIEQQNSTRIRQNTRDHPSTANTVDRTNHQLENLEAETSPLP

Turning to `CCCCCCN1CCC(C)(c2ccc3[nH]c(C)nc3c2)C(C)C1` (racemic) [Example 3, Trans-(±)-2-Methyl-5-(1-hexyl-3,4-dimethyl-4-piperidinyl)-1H-benzimidazole], the Ki is no more than 4 µM.
Turning to `CCCCCCN1CCC(C)(c2ccc3[nH]c(OC)nc3c2)C(C)C1` (racemic) [Example 7, Trans-(±)-2-Methoxy-5-(1-hexyl-3,4-dimethyl-4-piperidinyl)-1H-benzimidazole], the Ki is no more than 4 µM.
In the case of `CCCCCCN1CCC(C)(c2ccc3[nH]c(CC)nc3c2)C(C)C1` (racemic) [Example 12, Trans-(±)-2-ethyl-5-(1-Hexyl-3,4-dimethyl-4-piperidinyl)-1H-benzimidazole] it was no more than 4 µM.
Regarding `Cc1cccc(CCN2CCC(C)(c3ccc4[nH]c(C(F)(F)F)nc4c3)C(C)C2)c1` (racemic) [Example 18, Trans-(±)-2-(Trifluoromethyl)-5-[1-(3-methylphenethyl)-3,4-dimethyl-4-piperidinyl]-1H-benzimidazole], the Ki was no more than 4 µM.
The value for `CC(C)CCCCN1CCC(C)(c2ccc3[nH]cnc3c2)C(C)C1` (racemic) [Example 21, Trans-(±)-5-[1-(5-Methylhexyl)-3,4-dimethyl-4-piperidinyl]-1H-benzimidazole] was no more than 4 µM.
For `CCCCCCN1CCC(C)(c2ccc3nc(C)oc3c2)C(C)C1` (racemic) [Example 28, Trans-(±)-2-Methyl-6-(1-hexyl-3,4-dimethyl-4-piperidinyl)-1,3-benzoxazole], the Ki is no more than 4 µM.
